Laboratory results published in patent publication US20080280326A1, “Novel Gonadotropin-Releasing Hormone, Precursor Peptides Thereof and Genes Encoding the Same” (SUNTORY LIMITED, priority 2000, published 2008).
Square brackets hold non-standard residues; d marks the D form. pGlu = O=C1CC[C@@H](C(=O)O)N1

Key:
heart of O. vulgaris = assay: Measurement of the heart beat activity of O. vulgaris (isolated cannulated heart); set-up: species or system Octopus vulgaris; settings: for variation of the heart beat of O. vulgaris (heart rate and amplitude): 10^-5 M added to the chamber (FIG. 3)
Experimental: The heart beat activity of O. vulgaris was measured according to the method proposed by Morishita, et al. (Fumihiro Morishita, Biochem. Biophys. Res. Commun., 240, 354-358 (1997)). Specifically, the heart was taken from O. vulgaris and the atria were removed from the heart. A cannula was inserted from each atrium into the ventricle and was at the same time connected to a chamber (80 ml in volume) by tying with a cotton thread. The aorta was pinched to prevent leakage of liquid from the ventricle and was connected to a tension transducer. This completed preparation of the heart to serve as a specimen for the assay. Each cannula was adjusted to permit a 1 to 2 ml/min flow of artificial sea water (containing 0.1% glucose). Each of the analytes to be assayed was dissolved in 1 ml of the same artificial sea-water, and the resulting solution was injected into the heart through the cannulae. The variation of the heart beat was recorded.
As test compounds, Compound (1) isolated from the brains of O. vulgaris, Compound (2), and cGnRH-II, a vertebrate GnRH isolated from chickens and used to derive Compound (2) therefrom, were used.

[1] = tested on: Cells taken from the pituitary glands of quails; assay: Release of luteinizing hormone (LH) from cultured quail pituitary gland cells, radioimmunoassay; assay type: cell-based; settings: final concentrations 0, 10^-9 to 10^-5 M, 4 hrs incubation, one-way ANOVA (FIG. 4)
Experimental: Cells taken from the pituitary glands of quails were inoculated onto a 24-well plate at 7.5×10^5 cells/well (substantially equivalent to two animals). The cells were then incubated for 3 days in a culture medium containing fetal calf serum. The cells were incubated for another 24 hrs in 1 ml serum-free medium. After the incubation period, the peptide solution was added to the culture medium to final concentrations of 0, 10^−9, 10^−8, 10^−7, 10^−6 and 10^−5 M, respectively, and the cultures were further incubated for 4 hrs. The supernatant was then collected from each culture. For each concentration, 5 samples were subjected to radioimmunoassay and measurements were taken. The data were statistically analyzed by one-way analysis of variance (ANOVA).

Row | Substance | variation of the heart beat of O. vulgaris (heart of O. vulgaris; amount of Compound (1) corresponding to one specimen of O. vulgaris added to the chamber (FIG. 2)) | cardioactivity toward the heart beat of O. vulgaris, synthetic versus naturally-occurring peptide (heart of O. vulgaris; purified synthetic peptide of Example 3) | release of luteinizing hormone (LH) [1] | variation of the heart beat of O. vulgaris (heart rate and amplitude) (heart of O. vulgaris)
1 | <Glu-Asn-Tyr-His-Phe-Ser-Asn-Gly-Trp-His-Pro-Gly-NH2 ([pGlu]NYHFSNGWHPG-NH2; listed as Octopus vulgaris) [Compound (1)] | enhanced the heart beat of O. vulgaris | same cardioactivity toward the heart beat of O. vulgaris as did the naturally-occurring peptide | significantly increased the release of luteinizing hormone (LH) | 
2 | <Glu-His-Phe-Ser-Asn-Gly-Trp-His-Pro-Gly-NH2 ([pGlu]HFSNGWHPG-NH2; SMILES NC(=O)CNC(=O)[C@@H]1CCCN1C(=O)[C@H](Cc1c[nH]cn1)NC(=O)[C@H](Cc1c[nH]c2ccccc12)NC(=O)CNC(=O)[C@H](CC(N)=O)NC(=O)[C@H](CO)NC(=O)[C@H](Cc1ccccc1)NC(=O)[C@H](Cc1c[nH]cn1)NC(=O)[C@@H]1CCC(=O)N1; listed as Octopus vulgaris) [Compound (3), decapeptide obtained by deletion of amino acids 2 and 3 from the N-terminal region of Compound (1)] |  |  | increase the release of luteinizing hormone (LH) | 
3 | <Glu-Asn-Tyr-His-Trp-Ser-His-Gly-Trp-Tyr-Pro-Gly-NH2 ([pGlu]NYHWSHGWYPG-NH2; SMILES NC(=O)CNC(=O)[C@@H]1CCCN1C(=O)[C@H](Cc1ccc(O)cc1)NC(=O)[C@H](Cc1c[nH]c2ccccc12)NC(=O)CNC(=O)[C@H](Cc1c[nH]cn1)NC(=O)[C@H](CO)NC(=O)[C@H](Cc1c[nH]c2ccccc12)NC(=O)[C@H](Cc1c[nH]cn1)NC(=O)[C@H](Cc1ccc(O)cc1)NC(=O)[C@H](CC(N)=O)NC(=O)[C@@H]1CCC(=O)N1) [Compound (2), cGnRH-II with Asn-Tyr inserted between the first <Glu and the second His residues] |  |  |  | enhanced the heart beat of O. vulgaris by increasing both the heart rate and the amplitude of the heart beat
4 | cGnRH-II: chicken-II-type GnRH, a vertebrate decapeptide GnRH isolated from chickens, used to derive Compound (2) ([pGlu]HWSHGWYPG-NH2; ends and bridges not checked; UniProt P68072 1-10, looked up) [reference compound] |  |  |  | did not have any effect on the heart rate or the amplitude of the heart beat of O. vulgaris
